Our source for the RP-LC retention time values is the METLIN SMRT retention time set (Domingo-Almenara et al. 2019).

This data set in a line: gradient 5% acetonitrile 3 min, to 50% in 2 min, to 85% in 15 min, held 3 min, 100 µL/min. The following applies: column: Zorbax Extend-C18 2.1 x 50 mm; eluents: water / acetonitrile, 0.1% formic acid. The method in brief:
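In both positive and negative ionization mode, a quadrupole time-of-flight mass spectrometer coupled to HPLC analyzed pure standards run in mixtures of ~100 molecules. The Zorbax Extend-C18 column (2.1 × 50 mm, 1.8 μm) was operated at 100 μL/min with water and acetonitrile, each containing 0.1% formic acid. The dead volume was 40 μL and the dwell volume 900 μL. Retention time came from adduct peaks that were computationally picked and individually inspected by hand.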
Consider `CN(C)C(=O)c1ccc2c(c1)nc(CN(C)C(=O)Nc1ccc(Cl)cc1)n2C`, for which the RP-LC retention time is 616 s. The figure for `COc1cc2c(cc1OC)C1C(C(=O)NCCCN3CCC(C)CC3)c3ccccc3C(=O)N1CC2` (stereo not given) is 629 s. `Cc1ccccc1CNC(=O)c1sc(-c2cn(C)c3ncccc23)nc1C` showed an RP-LC retention time of 928 s. In the case of `O=C(/C=C/c1ccccc1)NC(NC(=S)Nc1ccc(Cl)cc1)C(Cl)(Cl)Cl` (stereo not given) it was 1030 s; in that of `Cc1ccc(F)c(NS(=O)(=O)c2cc3c(s2)CCN(C(=O)C2CCC2)C3)c1`, 891 s; in that of `Cc1ccc2c(c1)N(S(C)(=O)=O)CCC(C(=O)Nc1cccc(F)c1)O2` (stereo not given), 973 s. The figure for `CCn1ccnc1N1CCN(C(=O)COc2ccc(Cl)cc2Cl)CC1` is 593 s.

The compound `CC(=O)N1CCc2sc(C(=O)N3CCN(c4ccccc4F)CC3)cc2C1` yielded an RP-LC retention time of 784 s. The figure for `COCCc1noc(-c2cnc3nc(C)ccc3c2Nc2cccc(Cl)c2)n1` is 763 s; for `COc1ccc(/C=C\c2onc(C)c2NC(C)=O)cc1S(=O)(=O)N1CCN(c2ncccn2)CC1` it is 738 s; for `COc1ccc(-c2c(C)nn3c(N4CCN(c5ccccn5)CC4)cc(C)nc23)cc1OC` it is 600 s. In the case of `CCn1cc(C(=O)NCc2ccc(C)cc2)c(S(=O)(=O)N2CCSCC2)n1` it was 944 s; in that of `OC[C@@H]1CN(C2CCCC2)C[C@H]1c1nc(-c2cccnc2)no1`, 553 s; in that of `Fc1ccc(OCc2nnc3sc(-c4ccccc4F)nn23)cc1`, 940 s. In the case of `CCOc1ccc(S(=O)(=O)N2CCC(C(=O)Nc3ccc4c(c3)OCCO4)CC2)cc1` it was 903 s. With `COCCc1nncn1C1CCN(C(=O)c2cc(F)ccc2F)CC1`, the RP-LC retention time was found to be 618 s. The figure for `COc1ccc(-c2ncc3c(=O)n(Cc4cccc(OC)c4)c(=O)n(C)c3n2)cc1` is 1130 s; for `Cc1ccc2c(c1)cc(S(=O)(=O)c1ccccc1)c(=O)n2CC(=O)NCCC(C)C` it is 938 s.

Turning to `COc1ccc(-c2cc(C(=O)NCCc3c[nH]c4ccccc34)[nH]n2)cc1`, the RP-LC retention time came to 814 s. In the case of `Cc1ccc(S(=O)(=O)N2CCC3(CC2)NCCN=C3NCc2ccccc2F)c(C)c1` it was 747 s; in that of `Cc1[nH]c(C(=O)N2CCN(c3cccc(Cl)c3)CC2)c(C)c1S(=O)(=O)N1CCOCC1`, 883 s; in that of `CN(Cc1ccco1)C(=O)c1ccc2ccnc(N3CCN(c4ccc(Cl)cc4)CC3)c2c1`, 917 s. On to `O=C(CN1CCCc2nc(C3CC3)ncc2C1=O)NCCN1CCOCC1`, for which the RP-LC retention time turned out to be 554 s. In turn, `Cc1ccc(NC(=O)Nc2ccc(CC(N)=O)cc2)cc1C` came in with an RP-LC retention time of 675 s. `COC(=O)C1=CN(c2ccccc2)c2cc(F)ccc2S1(=O)=O` came in with an RP-LC retention time of 787 s. The figure for `Cc1cc(NC(=O)c2cc(Cl)ccc2Cl)n(C(C)C)n1` is 775 s; for `CCc1cc(=O)n(CC(=O)Nc2ccccc2C)c(N)n1` it is 639 s; for `CCOc1ccc2nc(Nc3ncc4c(n3)CC(c3ccc(OC)cc3)CC4=O)nc(C)c2c1` (stereo not given) it is 809 s. The figure for `CN1C(=O)c2ccccc2C(C(=O)NCc2ccccn2)C1c1cccs1` (stereo not given) is 607 s; for `Cc1cccc(NS(=O)(=O)c2ccc(-c3c(C)noc3C)cc2)c1C` it is 997 s; for `Cn1nc(CNC(=O)c2cnccn2)c2ccccc21` it is 689 s. The compound `CN(C)c1ccc(C(=O)N2CCC(c3cc(N)on3)CC2)cc1` returned an RP-LC retention time of 614 s. The figure for `CSc1ccc(NC(=O)c2cn3c(n2)COCC3)cc1` is 684 s. `COc1ccc(Nc2c(C(=O)N3CCCCCC3)cnc3nc(C)ccc23)cc1` yielded an RP-LC retention time of 638 s.

In turn, `O=C(Cc1nnc2c(-c3nc(C4CC4)no3)cccn12)NC1CCCCC1` displayed an RP-LC retention time of 685 s. In the case of `Cc1ccc(NC(=O)N2CC(N(C)Cc3cccnc3)C2)cc1C` it was 605 s. The figure for `CCn1ccc2cc(S(=O)(=O)N3CCC(C(=O)NCc4cccnc4)CC3)ccc21` is 653 s; for `Cc1oc2ncnc(N3CCCC(C(=O)NCc4ccccc4Cl)C3)c2c1C` (stereo not given) it is 892 s. `COc1cccc(-c2ccnc3nc(C4CCC4)nn23)c1` showed an RP-LC retention time of 868 s. In the case of `COc1cc(-c2cccc(Cl)c2)nc2ccc(NC(=O)Cc3cccs3)cc12` it was 843 s; in that of `Cc1noc(-c2cccc(OC3CN(C(=O)CN4C(=O)CCC4=O)C3)c2)n1`, 762 s; in that of `CCOc1nccnc1N1CCC(N(C)C(=O)c2ccc(C#N)cc2)C1` (stereo not given), 751 s. The figure for `CCOc1ccc(-n2nnc(C(=O)O)c2COC)cc1` is 734 s.

`O=C(NCC1CCOCC1)Nc1ccc(Cl)cc1C(F)(F)F`: the RP-LC retention time came to 846 s. The figure for `O=C(Cn1cccc1-c1nnc(C2CCC2)o1)NCc1cccc(Br)c1` is 937 s; for `O=C(NCCc1c[nH]c2ccccc12)c1cc(S(=O)(=O)N2CCCCC2)ccc1Cl` it is 966 s; for `CC1CCN(S(=O)(=O)c2ccc(-c3nnc(C(=O)NC4CCCCCC4)o3)cc2)CC1` it is 1170 s. In the case of `CC(C(=O)NCCc1cccs1)n1c2ccccc2c2cnn(C)c(=O)c21` (stereo not given) it was 855 s; in that of `Cc1ccc(-n2nc(C)c3sc(N4CCCC(C(=O)Nc5ccccc5C)C4)nc32)cc1` (stereo not given), 1220 s.

`Cc1nc(C)c(C(=O)N2CCCC2c2nc(-c3ccc(F)cc3F)no2)s1` (stereo not given) showed an RP-LC retention time of 837 s. The compound `Cc1ccc(S(=O)(=O)CCc2noc(C(=O)NCCCN3CCCC(C)C3)n2)cc1` (stereo not given) displayed an RP-LC retention time of 632 s.

`Cc1ccc(C)c(NC(=O)N2CCC3(CC2)NC(=O)c2ccc(F)cc2N3C)c1` gave an RP-LC retention time of 769 s. The figure for `O=c1c2ccccc2c(-c2nc(-c3cccnc3)no2)cn1-c1ccc(F)cc1` is 1050 s. Turning to `C#CCN[C@@H]1CCc2ccccc21`, the RP-LC retention time was determined as 613 s. `Cc1cccc(-c2nn3c(N4CCN(c5ccccn5)CC4)cc(C)nc3c2C)c1` yielded an RP-LC retention time of 648 s. Consider `Cc1ccc(NC(=O)N2CCC(c3cc(N)on3)CC2)cc1C`, for which the RP-LC retention time was found to be 728 s. In the case of `Cc1cc(NS(=O)(=O)c2ccc3c(c2)C(=O)N(C)c2ncccc2O3)ccc1F` it was 951 s; in that of `Cc1ccc(C(=O)N2CCN(c3nc(CN4CCC(C)CC4)cs3)CC2)cc1F`, 688 s; in that of `Cc1cc(C)n(Cc2nc(-c3ccc(NC(=O)Cc4cccc(F)c4)cc3)oc2C)n1`, 930 s. The figure for `CSc1nnc(NC(=O)c2ccccc2[N+](=O)[O-])s1` is 672 s; for `COc1ccc(Cl)cc1NS(=O)(=O)c1cc2n(c1)CCN(CC(C)C)C2=O` it is 868 s; for `O=C(NCc1ccco1)C1CCN(c2cc(N3CCSCC3)ncn2)CC1` it is 620 s. In the case of `Cc1nc2cc(-c3noc(C(C)NC(=O)c4ccccc4)n3)ccc2o1` (stereo not given) it was 811 s; in that of `CCOc1ccc(NC(=O)Cc2nnc(-c3ccncc3)o2)cc1`, 670 s. `NC(=O)[C@H](Cc1ccccc1)NC(=O)[C@H](Cc1ccccc1)NC(=O)[C@@H]1CCCN1C(=O)[C@@H](N)Cc1ccc(O)cc1` came in with an RP-LC retention time of 678 s. In the case of `O=C(c1ccc([N+](=O)[O-])cc1)N(C(=O)N1CCCCC1)c1cccc(Cl)c1` it was 953 s; in that of `COc1ccc(N2CCN(CC(O)c3cccc(OC)c3)CC2)cc1` (stereo not given), 657 s. The figure for `O=C(NCCC1=CCCCC1)C1CCCCN1S(=O)(=O)c1ccc(Cl)cc1` (stereo not given) is 1200 s; for `CCC(O)c1nc2ccccc2n1CC(=O)N1CCOCC1` (stereo not given) it is 566 s. The figure for `COc1ccc(CN2CCC3(CCC3O)CC2)cc1OC` (stereo not given) is 562 s; for `COc1ccc(N2CCn3c(SCC(=O)Nc4ccccc4C(F)(F)F)nnc32)cc1` it is 726 s; for `COCCN1CC(CO)C2(CCN(Cc3cccc(Cl)c3)CC2)C1` (stereo not given) it is 531 s. In the case of `COc1ccc(N2CC(C(=O)N3CCc4cc(-c5ccno5)ccc43)CC2=O)cc1` (stereo not given), the RP-LC retention time was 807 s. Consider `Cc1nc(NC(=O)N2CCC[C@H]2C(N)=O)sc1-c1ccnc(C(C)(C)C(F)(F)F)c1`, for which the RP-LC retention time was 746 s. The figure for `COCCCNC(=O)C1CCN(Cc2cc3ccccc3n2Cc2ccccc2)CC1` is 684 s; for `CCC(C)c1ccc(NC(=O)C2CCN(C(=O)C(C)(C)C)CC2)cc1` (stereo not given) it is 983 s.

Take `CCOc1ccc(S(=O)(=O)NCCC(O)C(C)(C)C)cc1F` (stereo not given): the RP-LC retention time was 826 s. In the case of `CC(C)CCNC(=O)Cc1cn(C)c2ncccc12` it was 679 s.

The compound `CCOC(=O)c1cn(Cc2cccc(F)c2)c2nc(C)ccc2c1=O` gave an RP-LC retention time of 878 s. The figure for `O=C(NCc1ccc2c(c1)OCO2)C1CC(=O)N(CCc2c[nH]c3ccc(Cl)cc23)C1` (stereo not given) is 799 s.
